According to PubChem BioAssay (NCI):
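Following 48 hours of exposure in 96-well plates, responses at five concentrations were used to interpolate endpoints linearly. At the TGI there is no net growth.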

Tests used:
Experiment in all cases: NCI anticancer screen, dose series, 48 h
CCRF-CEM leukemia = tested on: CCRF-CEM leukemia
NCI-H226 lung = tested on: NCI-H226 lung
SW-620 colon = tested on: SW-620 colon
DU-145 prostate = tested on: DU-145 prostate
HOP-62 NSCLC = tested on: HOP-62 NSCLC
HS 578T breast = tested on: HS 578T breast
RPMI-8226 leukemia = tested on: RPMI-8226 leukemia
NCI-H460 lung = tested on: NCI-H460 lung
SF-539 CNS = tested on: SF-539 CNS
UACC-62 melanoma = tested on: UACC-62 melanoma
OVCAR-3 ovarian = tested on: OVCAR-3 ovarian
NCI-H522 lung = tested on: NCI-H522 lung
UO-31 renal = tested on: UO-31 renal
SF-295 CNS = tested on: SF-295 CNS
SF-268 CNS = tested on: SF-268 CNS
A498 renal = tested on: A498 renal
SK-MEL-2 melanoma = tested on: SK-MEL-2 melanoma
HCT-15 colon = tested on: HCT-15 colon
CAKI-1 renal = tested on: CAKI-1 renal
A549 NSCLC = tested on: A549 NSCLC
HOP-92 NSCLC = tested on: HOP-92 NSCLC
OVCAR-4 ovarian = tested on: OVCAR-4 ovarian
K-562 leukemia = tested on: K-562 leukemia
HCT-116 colon = tested on: HCT-116 colon
TK-10 renal = tested on: TK-10 renal
M14 melanoma = tested on: M14 melanoma
T-47D breast = tested on: T-47D breast
HCC-2998 colon = tested on: HCC-2998 colon
RXF 393 renal = tested on: RXF 393 renal
COLO 205 colon = tested on: COLO 205 colon
MDA-MB-435 = tested on: MDA-MB-435
SK-MEL-28 melanoma = tested on: SK-MEL-28 melanoma
PC-3 prostate = tested on: PC-3 prostate
SK-MEL-5 melanoma = tested on: SK-MEL-5 melanoma
EKVX NSCLC = tested on: EKVX NSCLC
HT29 colon = tested on: HT29 colon
KM12 colon = tested on: KM12 colon
NCI/ADR-RES ovarian = tested on: NCI/ADR-RES ovarian
BT-549 breast = tested on: BT-549 breast
MOLT-4 leukemia = tested on: MOLT-4 leukemia
MCF7 breast = tested on: MCF7 breast
786-0 renal = tested on: 786-0 renal
OVCAR-5 ovarian = tested on: OVCAR-5 ovarian
U251 CNS = tested on: U251 CNS
LOX IMVI melanoma = tested on: LOX IMVI melanoma
ACHN renal = tested on: ACHN renal
SR leukemia = tested on: SR leukemia
SNB-75 CNS = tested on: SNB-75 CNS
HL-60(TB) leukemia = tested on: HL-60(TB) leukemia
UACC-257 melanoma = tested on: UACC-257 melanoma
SK-OV-3 ovarian = tested on: SK-OV-3 ovarian
OVCAR-8 ovarian = tested on: OVCAR-8 ovarian
MDA-N = tested on: MDA-N
NCI-H23 lung = tested on: NCI-H23 lung
MDA-MB-231 breast = tested on: MDA-MB-231 breast
MALME-3M melanoma = tested on: MALME-3M melanoma
SN12C renal = tested on: SN12C renal
IGROV1 ovarian = tested on: IGROV1 ovarian
SNB-19 CNS = tested on: SNB-19 CNS

O=C1C(Br)=CC2(C=C1Br)CCN=c1c(O)c3c(c(O)c12)=NC=N3
TGI (CCRF-CEM leukemia): 48.9 µM | TGI (NCI-H226 lung): 37.4 µM | TGI (SW-620 colon): 31.9 µM | TGI (DU-145 prostate): 29.6 µM | TGI (HOP-62 NSCLC): 31.1 µM | TGI (HS 578T breast): 71.5 µM | TGI (RPMI-8226 leukemia): 50.9 µM | TGI (NCI-H460 lung): 32.8 µM | TGI (SF-539 CNS): 32.1 µM | TGI (UACC-62 melanoma): 24.2 µM | TGI (OVCAR-3 ovarian): 29.1 µM | TGI (NCI-H522 lung): 28.1 µM | TGI (UO-31 renal): 29.4 µM | TGI (SF-295 CNS): 30 µM | TGI (SF-268 CNS): 28.2 µM | TGI (A498 renal): 33.2 µM | TGI (SK-MEL-2 melanoma): 21.3 µM | TGI (HCT-15 colon): 29.1 µM | TGI (CAKI-1 renal): 41 µM | TGI (A549 NSCLC): 37.9 µM | TGI (HOP-92 NSCLC): 24.8 µM | TGI (OVCAR-4 ovarian): 27.8 µM | TGI (K-562 leukemia): 41.1 µM | TGI (HCT-116 colon): 30.3 µM | TGI (TK-10 renal): 59 µM | TGI (M14 melanoma): 30.6 µM | TGI (T-47D breast): 33.7 µM | TGI (HCC-2998 colon): 46.3 µM | TGI (RXF 393 renal): 29.9 µM | TGI (COLO 205 colon): 37.6 µM | TGI (MDA-MB-435): 23.4 µM | TGI (SK-MEL-28 melanoma): 29.9 µM | TGI (PC-3 prostate): > 100 µM | TGI (SK-MEL-5 melanoma): 23.4 µM | TGI (EKVX NSCLC): 32 µM | TGI (HT29 colon): 29.2 µM | TGI (KM12 colon): 30.9 µM | TGI (NCI/ADR-RES ovarian): 52.9 µM | TGI (BT-549 breast): 33.3 µM | TGI (MOLT-4 leukemia): > 100 µM | TGI (MCF7 breast): 28.5 µM | TGI (786-0 renal): 30 µM | TGI (OVCAR-5 ovarian): 29.4 µM | TGI (U251 CNS): 28.4 µM | TGI (LOX IMVI melanoma): 27.1 µM | TGI (ACHN renal): 27.7 µM | TGI (SR leukemia): > 100 µM | TGI (SNB-75 CNS): 30.5 µM | TGI (HL-60(TB) leukemia): 35 µM | TGI (UACC-257 melanoma): 28 µM | TGI (SK-OV-3 ovarian): 48.2 µM | TGI (OVCAR-8 ovarian): 31.9 µM | TGI (MDA-N): 3.34 µM | TGI (NCI-H23 lung): 26.9 µM | TGI (MDA-MB-231 breast): 29.4 µM

CCOC(=O)NC(Nc1ccc(S(=O)(=O)Nc2ncccn2)cc1)(C(=O)OCC)C(F)(F)F (stereo unspecified)
TGI (CCRF-CEM leukemia): > 100 µM | TGI (NCI-H226 lung): > 100 µM | TGI (SW-620 colon): > 100 µM | TGI (DU-145 prostate): > 100 µM | TGI (HOP-62 NSCLC): > 100 µM | TGI (MALME-3M melanoma): > 100 µM | TGI (HS 578T breast): > 100 µM | TGI (SN12C renal): > 100 µM | TGI (RPMI-8226 leukemia): > 100 µM | TGI (NCI-H460 lung): > 100 µM | TGI (SF-539 CNS): > 100 µM | TGI (UACC-62 melanoma): > 100 µM | TGI (OVCAR-3 ovarian): > 100 µM | TGI (NCI-H522 lung): > 100 µM | TGI (UO-31 renal): > 100 µM | TGI (SF-295 CNS): > 100 µM | TGI (SF-268 CNS): > 100 µM | TGI (SK-MEL-2 melanoma): > 100 µM | TGI (HCT-15 colon): > 100 µM | TGI (CAKI-1 renal): > 100 µM | TGI (A549 NSCLC): > 100 µM | TGI (HOP-92 NSCLC): > 100 µM | TGI (IGROV1 ovarian): > 100 µM | TGI (OVCAR-4 ovarian): > 100 µM | TGI (K-562 leukemia): > 100 µM | TGI (SNB-19 CNS): > 100 µM | TGI (HCT-116 colon): > 100 µM | TGI (M14 melanoma): > 100 µM | TGI (T-47D breast): > 100 µM | TGI (HCC-2998 colon): > 100 µM | TGI (COLO 205 colon): > 100 µM | TGI (MDA-MB-435): > 100 µM | TGI (SK-MEL-28 melanoma): > 100 µM | TGI (PC-3 prostate): > 100 µM | TGI (SK-MEL-5 melanoma): > 100 µM | TGI (EKVX NSCLC): > 100 µM | TGI (HT29 colon): > 100 µM | TGI (KM12 colon): > 100 µM | TGI (NCI/ADR-RES ovarian): > 100 µM | TGI (BT-549 breast): > 100 µM | TGI (MOLT-4 leukemia): > 100 µM | TGI (MCF7 breast): > 100 µM | TGI (786-0 renal): > 100 µM | TGI (OVCAR-5 ovarian): > 100 µM | TGI (U251 CNS): > 100 µM | TGI (LOX IMVI melanoma): > 100 µM | TGI (ACHN renal): > 100 µM | TGI (SR leukemia): > 100 µM | TGI (SNB-75 CNS): > 100 µM | TGI (HL-60(TB) leukemia): > 100 µM | TGI (UACC-257 melanoma): > 100 µM | TGI (SK-OV-3 ovarian): > 100 µM | TGI (OVCAR-8 ovarian): > 100 µM | TGI (MDA-N): > 100 µM | TGI (NCI-H23 lung): > 100 µM | TGI (MDA-MB-231 breast): > 100 µM
